Source: US9718781B2, “Methods and compounds for treating proliferative disorders and viral infections” (University College Dublin, National University of Ireland, …, priority 2012, dated 2017)

Legend:
TPα = target: T1, TPα (Homo sapiens, UniProt P21731); assay: U46619-induced [Ca2+]i mobilization in HEK.TPα cells; assay type: cell-based; details: 1 μM U46619, % of agonist-induced response in vehicle-treated cells; for remaining activity at 1 µM: antagonist 1 μM, read-out: Percentage of Control, TPα, 1 μM; for remaining activity at 10 µM: antagonist 10 μM, read-out: Percentage of Control, TPα, 10 μM
T1 construct: expressed in transfected cells
T1 sequence (P21731 1-343): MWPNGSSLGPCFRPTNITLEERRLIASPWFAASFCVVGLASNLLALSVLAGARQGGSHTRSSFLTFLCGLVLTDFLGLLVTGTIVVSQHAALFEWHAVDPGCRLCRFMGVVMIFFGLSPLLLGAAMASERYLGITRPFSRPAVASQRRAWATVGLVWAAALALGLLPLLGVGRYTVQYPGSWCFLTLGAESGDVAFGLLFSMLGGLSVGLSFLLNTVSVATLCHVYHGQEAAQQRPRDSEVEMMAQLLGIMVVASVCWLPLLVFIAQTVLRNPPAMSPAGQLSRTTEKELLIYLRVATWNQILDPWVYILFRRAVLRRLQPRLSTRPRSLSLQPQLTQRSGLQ
Description: (§1) An appropriate functional test for the evaluation of the agonistic and/or antagonistic potency of the compounds of the invention is the determination of calcium flux. Both TPα and TPβ are coupled to the G-protein Gαq. Therefore, stimulation of these receptors ultimately leads to a release of intracellular calcium ([Ca^2+]i) from intracellular stores. Consequently, the determination of [Ca^2+]i flux represents an appropriate functional test for the evaluation of the agonistic/antagonistic potency of compounds of the invention. Calcium can be measured using a molecule characterized by the covalent combination of a Ca^2+ chelating group and a fluorophore group. The Ca^2+ binding properties of these indicators are formed by the presence of a tetracarboxylic acid core as found for example in EGTA (Ethylene Glycol bis(2-aminoethyl)Tetraacetic Acid). Binding of Ca^2+ produces a wavelength shift in either the excitation or emission fluorescence spectra or a change in the emission intensity. Whereas the Ca^2+ binding to EGTA is pH dependent, recent dyes are designed from an EGTA derivative, BAPTA (1,2-Bis(2-Aminophenoxy)ethane-N,N,N′,N′-Tetraacetic Acid). Loading of these dyes inside cells commonly uses esterified forms (acetoxymethyl ester), which are able to cross the cell membranes and are subsequently hydrolyzed by esterases inside the cell.
(§2) Estimation of [Ca^2+]i flux is calculated from the fluorescence signal (F). For calibration, the maximal fluorescence (Fmax, Ca^2+-saturated form of the dye) as well as minimal fluorescence (Fmin, Ca^2+-free form of the dye) must be determined. These parameters are determined usually in situ after the experiment, for example by subsequent addition to the mixture of a cell-disrupting agent that releases all Ca^2+ such as Triton X100 and a potent Ca^2+-chelating agent such as EGTA. After subtraction of background fluorescence, [Ca^2+]; flux can be calculated for non-ratiometric indicators.
(§3) Intracellular [Ca^2+]; fluxes were measured using a fluorescence plate reader following a modified protocol of Kassack et al., ‘Quantitative comparison of functional screening by measuring intracellular Ca^2+ with radioligand binding at recombinant human dopamine receptors’, AAPS Pharmsci, 2002, 4(4); 102-111, in cell lines (e.g. HEK293 or other cell type) endogenously-expressing or over-expressing either TPα, TPβ or any other receptor or protein to be screened.
(§4) By way of example, HEK 293 cells which have been grown for 3-4 days in normal growth media (minimum essential media containing 10% FBS and 2 mmol/1 L-glutamine), under normal growth conditions (37° C., in humidified 5% CO2 atmosphere) are washed and harvested in KREBs-HEPES buffer (118 mM NaCl, 4.7 mM KCl, 1.2 mM MgSO4, 1.2 mM KH2PO4, 4.2 mM NaHCO3, 11.7 mM D-glucose, 1.3 mM CaCl2, 10 mM HEPES, pH 7.4). Cells are then incubated with 3 μM Fluo-4 in KREBs-HEPES buffer containing 1% Pluoronic F-127, for 1 hr at 25° C. with agitation. Then, cells are washed in KREBs-HEPES buffer containing 0.5% BSA and re-suspended at a final concentration of 3×10^5 cells/ml. Approx. 5.4×10^4 cells per well are plated in a 96-well plate and pre-incubated with test compounds for 10 m prior to measuring the fluorescence intensity at 520 nm for 25 seconds at 1 s intervals to monitor baseline using the Fluoroskan Ascent. Agonist (e.g., 1 μM U46619) is injected into separate wells by the automatic pipettor and fluorescence intensity is monitored at 520 nm for 75 seconds at 1 s intervals. Thereafter, Triton X100 and EGTA are added sequentially where Fmax refers to maximal fluorescence intensity measured after permeabilization of the cells with 2% Triton X100 and Fmin refers to fluorescence intensity measured after addition of 1 mM EGTA.
(§5) The dye Fluo-4 has its excitation peak at 480 nm, in the visible spectra, which spare cells to be damaged by UV (340-360 nm) stimulation and reduces auto-fluorescence of cells. […]

TPβ = target: T2, TPβ (Homo sapiens, UniProt P21731); assay: U46619-induced [Ca2+]i mobilization in HEK.TPβ cells; assay type: cell-based; details: 1 μM U46619, % of agonist-induced response in vehicle-treated cells; for remaining activity at 1 µM: antagonist 1 μM, read-out: Percentage of Control, TPβ, 1 μM; for remaining activity at 10 µM: antagonist 10 μM, read-out: Percentage of Control, TPβ, 10 μM
T2 construct: expressed in transfected cells
Description: as §1, §2, §3, §4, §5

T2 sequence (P21731 1-407 isoform P21731-2): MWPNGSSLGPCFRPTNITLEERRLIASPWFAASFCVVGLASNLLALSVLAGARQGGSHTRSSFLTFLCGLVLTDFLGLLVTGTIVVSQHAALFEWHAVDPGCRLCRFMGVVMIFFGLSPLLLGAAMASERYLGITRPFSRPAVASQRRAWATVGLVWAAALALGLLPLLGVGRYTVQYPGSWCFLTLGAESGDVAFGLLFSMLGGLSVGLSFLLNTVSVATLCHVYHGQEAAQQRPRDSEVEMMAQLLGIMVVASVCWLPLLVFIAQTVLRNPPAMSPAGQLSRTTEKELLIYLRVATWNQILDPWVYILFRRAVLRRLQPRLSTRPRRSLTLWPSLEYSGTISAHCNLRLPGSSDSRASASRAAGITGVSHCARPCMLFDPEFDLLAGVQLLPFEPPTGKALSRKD

SMILES | remaining activity at 1 µM (TPα) [%] | remaining activity at 10 µM (TPα) [%] | remaining activity at 1 µM (TPβ) [%] | remaining activity at 10 µM (TPβ) [%]
CNC(=O)c1ccc(Oc2cccc(-c3ccc(OC)cc3)c2)c(S(=O)(=O)NC(=O)NC(C)(C)C)c1 [NTP10] | 95.5 ± 4.25 | 69.8 ± 1.73 | 96 ± 0.94 | 54.7 ± 8.1
COc1ccc(-c2cccc(Oc3ccc(C(=O)NCc4ccccn4)cc3S(=O)(=O)NC(=O)NC(C)(C)C)c2)cc1 [NTP11] | 73.1 ± 5.28 | 75.4 ± 5.83 | 49.8 ± 1.86 | 20.7 ± 2.81
COc1ccc(-c2cccc(Oc3ccc(C(=O)NC4COC4)cc3S(=O)(=O)NC(=O)NC(C)(C)C)c2)cc1 [NTP12] | 99.7 ± 2.13 | 77.9 ± 2.69 | 84.2 ± 7.51 | 34.4 ± 2.85
COc1ccc(-c2cccc(Oc3ccc(C(N)=O)cc3S(=O)(=O)NC(=O)NC(C)(C)C)c2)cc1 [NTP13] | 93.8 ± 13.9 | 95.2 ± 9.57 | 74 ± 3.66 | 36.2 ± 0.52
COCCNC(=O)c1ccc(Oc2cccc(-c3ccc(OC)cc3)c2)c(S(=O)(=O)NC(=O)NC(C)(C)C)c1 [NTP14] | 83.5 ± 9.26 | 89.1 ± 9.1 | 86.4 ± 7.06 | 59.4 ± 7.67
COc1ccc(-c2cccc(Oc3ccc(C(=O)NCCN(C)C)cc3S(=O)(=O)NC(=O)NC(C)(C)C)c2)cc1 [NTP15] | 79.8 ± 8.81 | 52.6 ± 8.42 | 87.6 ± 8.28 | 86.1 ± 5.64
COc1ccc(-c2cccc(Oc3ccc(C(=O)NCC4CC4)cc3S(=O)(=O)NC(=O)NC(C)(C)C)c2)cc1 [NTP16] | 117 ± 10.2 | 96.3 ± 1.24 | 83 ± 7.62 | 34 ± 3.88
COc1ccc(-c2cccc(Oc3ccc(C(=O)N4CCC4)cc3S(=O)(=O)NC(=O)NC(C)(C)C)c2)cc1 [NTP17] | 83.1 ± 4.85 | 59.5 ± 4.07 | 51.1 ± 1.13 | 13.3 ± 5.91
COc1ccc(-c2cccc(Oc3ccc(-c4cn[nH]c4)cc3S(=O)(=O)NC(=O)NC(C)(C)C)c2)cc1 [NTP18] | 93.4 ± 6.17 | 73.6 ± 2.98 | 45 ± 4.34 | 22.6 ± 2.28
COc1ccc(-c2cccc(Oc3ccc(-c4c(C)noc4C)cc3S(=O)(=O)NC(=O)NC(C)(C)C)c2)cc1 [NTP19] | 97.6 ± 8.6 | 99.4 ± 16 | 77.7 ± 3.24 | 64.5 ± 4.65
